Source: patent EP3418270A1, “NOVEL BIPHENYLSULFOXIMINES AS ALLOSTERIC MODULATORS OF THE DOPAMINE D1 RECEPTOR” (Universidad Complutense De Madrid, priority 2017, dated 2018)
One block for each compound: values may come before it.

Experiments:
human D1 receptors = molecular target: T1, human D1 receptors (Homo sapiens, UniProt P21728); assay: Allosteric modulation of human dopamine D1 receptors: dopamine-induced cAMP production (HTRF) in SK-N-MC cells; format: cell-based; details: for Potentiation (%) at 10 µM / Potentiation (%) at 5 µM: potentiation of dopamine Emax; for Potentiation (%) at 10 µM: compound at 10 µM; for Potentiation (%) at 5 µM: compound at 5 µM (values marked *)
T1 construct: endogenously expressed human D1 receptors in SK-N-MC cell line; host or cells: SK-N-MC human neuroblastoma cells
T1 sequence (P21728 whole entry): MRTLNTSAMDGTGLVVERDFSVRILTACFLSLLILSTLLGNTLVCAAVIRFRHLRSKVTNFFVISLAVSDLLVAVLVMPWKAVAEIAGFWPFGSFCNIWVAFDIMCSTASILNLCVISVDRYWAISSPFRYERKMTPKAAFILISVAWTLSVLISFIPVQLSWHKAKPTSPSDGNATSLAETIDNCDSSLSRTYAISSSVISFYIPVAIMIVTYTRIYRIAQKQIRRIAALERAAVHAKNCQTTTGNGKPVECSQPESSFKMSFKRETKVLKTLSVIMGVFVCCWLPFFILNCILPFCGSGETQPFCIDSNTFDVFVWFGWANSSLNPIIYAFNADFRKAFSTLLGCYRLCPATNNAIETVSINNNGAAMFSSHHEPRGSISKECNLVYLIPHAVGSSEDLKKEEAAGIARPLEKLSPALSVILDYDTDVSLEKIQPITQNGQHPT
Protocol: Functional studies at human D1 receptors were carried out in endogenously expressed human D1 receptors in SK-N-MC cell line (ATCC). SK-N-MC cells were thawed and seeded into a black 96-well plate (1×10^4 cells/well) in Optimem containing 500 µM IBMX.
(§1) Cells were treated with the test compounds for 15 min at 25°C and dopamine was added to the corresponding wells and incubated for additional 15 min at 25°C. Treated cells were lysed and the cAMP concentration was measured by homogeneous time-resolved fluorescence energy transfer (HTRF; Cisbio Kit). HTRF was read in a Tecan M1000 Genius Pro reader (λexcitation = 320 nm, λemission = 620 nm and 665 nm, 30 flashes).
(§2) Data were normalized to dopamine maximum effect and fitted to a 4-parameter logistic equation Prism v2.1 (GraphPad Inc).
If the observed effect is dose-dependent, compounds were then tested in the cAMP assay, this time maintaining a fixed concentration of dopamine (=EC70) while increasing the concentration of the compound, and the potentiation of the dopamine effect was measured.

[1] = molecular target: T2, recombinant human D2 receptors (Homo sapiens, UniProt P14416); assay: Functional assay at human D2 receptors: cAMP (HTRF), forskolin-stimulated CHO cells; format: cell-based; details: Figure 3
T2 construct: expressed in transfected cells; host or cells: CHO cell line, stably transfected in-house
T2 sequence (P14416 whole entry): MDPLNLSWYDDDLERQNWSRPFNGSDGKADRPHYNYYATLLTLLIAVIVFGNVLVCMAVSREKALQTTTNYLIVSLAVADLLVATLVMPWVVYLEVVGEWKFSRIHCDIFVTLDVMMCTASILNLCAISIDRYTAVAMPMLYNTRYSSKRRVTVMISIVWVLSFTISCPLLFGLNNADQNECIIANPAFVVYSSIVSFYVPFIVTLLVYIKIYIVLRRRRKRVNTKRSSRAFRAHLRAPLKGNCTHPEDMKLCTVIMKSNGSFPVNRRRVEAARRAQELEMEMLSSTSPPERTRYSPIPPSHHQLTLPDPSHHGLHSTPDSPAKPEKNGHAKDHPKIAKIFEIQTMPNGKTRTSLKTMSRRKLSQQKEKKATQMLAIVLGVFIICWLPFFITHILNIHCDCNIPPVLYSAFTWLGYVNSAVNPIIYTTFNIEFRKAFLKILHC
Protocol: Functional studies at D2 receptors were carried out in recombinant human D2 receptors stably transfected in-house in a CHO cell line. Cells were thawed and seeded into a 96-well plate (5×10^3 cells/well) in Optimem containing 500 µM IBMX.
as §1, with “for 5” for “for 15”, “at 37°C” for “at 25°C”, “additional 10” for “additional 15”, “at 37°C. After this time cells were treated with 10 µM forskolin for 5 min at 37°C.” for “at 25°C.”
as §2

[2] = molecular target: T3, human dopamine D1 receptor (Homo sapiens, UniProt P21728); assay: Radioligand binding assay at human D1 receptors ([3H]SCH23390 displacement, membranes); design: purchased Perkin Elmer; details: 0.7 nM [3H]SCH23390, orthosteric site
T3 sequence (P21728 whole entry): as the sequence (P21728 whole entry) above
Protocol: Assays were carried out by using plasma membranes (12 µg/well) expressing human dopamine D1 receptor (Perkin Elmer). Membranes were incubated in a Multiscreen FC 96-well plate (Millipore) with 0.7 nM [^3H]SCH23390 (Perkin Elmer) and increasing amounts of the test compound in assay buffer (50 mM Tris-HCl, 5 mM MgCl2; pH=7.4) for 1 h at 27°C. After this time the well content was filtered through a Millipore manifold and membranes washed 4 times with assay buffer. Plate was dried and radioactivity was measured in a Microbeta Trilux liquid scintillation reader (Perkin-Elmer). Non-specific binding was determined in the presence of 1 µM (+)-butaclamol.
Data were normalized to percentage of specific binding and fitted to a 4-parameter logistic equation with Prism v2.1 (GraphPad Inc).

human D5 receptors = human D5 receptors (Homo sapiens, UniProt P21918); assay: Functional assay at human D5 receptors: cAMP Hunter express DRD5 assay; format: cell-based; details: cAMP formation, Figure 6
Sequence of human D5 receptors (P21918 whole entry): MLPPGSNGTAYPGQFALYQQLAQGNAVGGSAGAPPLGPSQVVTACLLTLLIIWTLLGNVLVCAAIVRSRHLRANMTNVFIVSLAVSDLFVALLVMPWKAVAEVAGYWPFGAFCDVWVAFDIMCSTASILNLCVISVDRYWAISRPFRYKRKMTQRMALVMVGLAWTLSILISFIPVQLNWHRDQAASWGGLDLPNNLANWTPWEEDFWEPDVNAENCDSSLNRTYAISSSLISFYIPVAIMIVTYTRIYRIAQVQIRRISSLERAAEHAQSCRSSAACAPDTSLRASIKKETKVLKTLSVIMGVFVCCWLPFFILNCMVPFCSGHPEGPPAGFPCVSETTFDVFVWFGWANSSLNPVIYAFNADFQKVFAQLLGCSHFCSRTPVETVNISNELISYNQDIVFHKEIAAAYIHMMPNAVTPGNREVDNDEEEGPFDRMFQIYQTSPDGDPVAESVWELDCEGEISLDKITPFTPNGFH
Protocol: Functional studies at human D5 receptors receptors were carried by employing a cAMP Hunter express DRD5 assay kit from DiscoverX. Cells were plated maintained for 24 h at 37°C in a 5% CO2 atmosphere in cell plating reagent provided in the kit.
(§3) Cells were treated with the test compounds for 15 min at 37°C and dopamine was added to the corresponding wells and incubated for additional 30 min at 37°C. Cells were then treated with the cAMP detection solution provided with the kit for 1 h and then cAMP solution A was added to each well and incubated for 3 h at RT. cAMP formation was measured by luminescence detection (integration time=500 ms) in a Tecan M1000 Genius Pro reader.
as §2

human D4 receptors = molecular target: T4, human D4 receptors (Homo sapiens, UniProt P21917); assay: Functional assay at human D4 receptors: PatHunter Beta-arrestin express GPCR assay; format: cell-based; details: beta-arrestin translocation, Figure 5
T4 sequence (P21917 1-419): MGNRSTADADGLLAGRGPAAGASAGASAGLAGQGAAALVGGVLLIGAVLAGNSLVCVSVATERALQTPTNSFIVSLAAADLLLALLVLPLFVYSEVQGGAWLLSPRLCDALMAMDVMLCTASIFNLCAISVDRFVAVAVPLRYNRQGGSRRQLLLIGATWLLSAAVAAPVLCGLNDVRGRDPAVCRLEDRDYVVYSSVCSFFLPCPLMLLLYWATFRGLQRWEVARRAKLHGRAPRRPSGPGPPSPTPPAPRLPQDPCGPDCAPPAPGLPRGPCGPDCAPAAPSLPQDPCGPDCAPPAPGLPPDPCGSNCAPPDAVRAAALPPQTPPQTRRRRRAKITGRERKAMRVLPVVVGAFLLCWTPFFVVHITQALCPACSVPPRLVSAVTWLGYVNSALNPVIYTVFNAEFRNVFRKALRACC
Protocol: (§4) Functional studies at both human D3 and D4 receptors receptors were carried by employing a PatHunter Beta-arrestin express GPCR assay kit from DiscoverX. Cells were plated maintained for 48 h at 37°C in a 5% CO2 atmosphere in cell plating reagen t provided in the kit.
as §3, with “30” for “15”, “90” for “30”, “working” for “cAMP”, “beta-arrestin translocation” for “then cAMP solution A was added to each well and incubated for 3 h at RT. cAMP formation”
as §2

human D3 receptors = human D3 receptors (Homo sapiens, UniProt P35462); assay: Functional assay at human D3 receptors: PatHunter Beta-arrestin express GPCR assay; format: cell-based; details: beta-arrestin translocation, Figure 4
Sequence of human D3 receptors (P35462 whole entry): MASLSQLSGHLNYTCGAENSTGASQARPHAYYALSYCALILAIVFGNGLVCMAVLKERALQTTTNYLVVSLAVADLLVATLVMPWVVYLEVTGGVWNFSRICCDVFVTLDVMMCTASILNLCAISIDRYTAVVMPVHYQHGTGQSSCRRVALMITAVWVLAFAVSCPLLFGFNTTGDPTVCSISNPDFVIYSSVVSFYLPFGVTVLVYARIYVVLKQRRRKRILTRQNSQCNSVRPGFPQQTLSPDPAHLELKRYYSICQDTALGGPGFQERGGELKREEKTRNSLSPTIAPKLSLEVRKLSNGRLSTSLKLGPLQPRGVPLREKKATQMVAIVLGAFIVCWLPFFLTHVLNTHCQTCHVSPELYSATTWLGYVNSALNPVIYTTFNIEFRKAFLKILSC
Protocol: as §4
as §3, with “30” for “15”, “90” for “30”, “working” for “cAMP”, “beta-arrestin translocation” for “then cAMP solution A was added to each well and incubated for 3 h at RT. cAMP formation”
as §2

[3] = molecular target: T3, human dopamine D1 receptor; assay: Agonist effect at human dopamine D1 receptors: cAMP (HTRF) in SK-N-MC cells without dopamine; format: cell-based; design: endogenously expressed human D1 receptors in SK-N-MC cell line; host or cells: SK-N-MC human neuroblastoma cells; details: in the absence of dopamine, cAMP (Figure 2)
Protocol: as §1, with “SK-N-MC cells seeded into a black 96-well plate (1×10^4 cells/well) in Optimem containing 500 µM IBMX” for “Cells”, “for” for “for 15 min at 25°C and dopamine was added to the corresponding wells and incubated for additional”
as §2

Potentiation (%) at 10 µM (human D1 receptors): 54%
SMILES: CCS(=N)(=O)c1ccc(-c2ccccc2OCF)cc1 (stereo not drawn) [Ii, 2-(Fluoromethoxy)-4'-(S-ethylsulfonimidoyl)biphenyl]

functional subtype selectivity against dopamine D2 receptor [1]: functional subtype selectivity
Potentiation (%) at 5 µM (human D1 receptors): 47%
inhibition at 10 µM [2]: 6%
functional subtype selectivity against D5 receptor (human D5 receptors): functional subtype selectivity
functional subtype selectivity against D4 receptor (human D4 receptors): functional subtype selectivity
functional subtype selectivity against D3 receptor (human D3 receptors): functional subtype selectivity
intrinsic agonist activity [3]: no potentiation
SMILES: C[S@](=N)(=O)c1ccc(-c2ccccc2OCF)cc1 [(S)-Ik, (S)-2-(Fluoromethoxy)-4'-(S-methylsulfonimidoyl)biphenyl]

functional subtype selectivity against dopamine D2 receptor [1]: functional subtype selectivity
Potentiation (%) at 5 µM (human D1 receptors): 63%
inhibition at 10 µM [2]: 12%
functional subtype selectivity against D5 receptor (human D5 receptors): functional subtype selectivity
functional subtype selectivity against D4 receptor (human D4 receptors): functional subtype selectivity
functional subtype selectivity against D3 receptor (human D3 receptors): functional subtype selectivity
intrinsic agonist activity [3]: no potentiation
SMILES: C[S@@](=N)(=O)c1ccc(-c2ccccc2OCF)cc1 [(R)-Ik, (R)-2-(Fluoromethoxy)-4'-(S-methylsulfonimidoyl)biphenyl]

functional subtype selectivity against dopamine D2 receptor [1]: functional subtype selectivity
EC50 (human D1 receptors; potency in the presence of dopamine (fixed concentration = EC70)): 0.06 µM
Potentiation (%) at 5 µM (human D1 receptors): 35%
Potentiation (%) at 10 µM (human D1 receptors): 55%
inhibition at 10 µM [2]: 36%
functional subtype selectivity against D5 receptor (human D5 receptors): functional subtype selectivity
functional subtype selectivity against D4 receptor (human D4 receptors): functional subtype selectivity
functional subtype selectivity against D3 receptor (human D3 receptors): functional subtype selectivity
intrinsic agonist activity [3]: no potentiation
SMILES: CS(=N)(=O)c1ccc(-c2ccccc2OCF)cc1 (racemic) [Ik, 2-(Fluoromethoxy)-4'-(S-methylsulfonimidoyl)biphenyl]

Potentiation (%) at 10 µM (human D1 receptors): 30%
SMILES: CN=S(C)(=O)c1ccc(-c2ccccc2OCF)cc1 (stereo not drawn) [Ih, 4'-(N,S-Dimethylsulfonimidoyl)-2-(fluoromethoxy)biphenyl]

The remaining lines, values behind:

SMILES: CN=S(C)(=O)c1ccc(-c2ccccc2OC(F)F)cc1 (stereo not drawn) [Ib, 2-(Difluoromethoxy)-4'-(N,S-dimethylsulfonimidoyl)biphenyl]
Potentiation (%) at 10 µM (human D1 receptors): 64%

SMILES: CN=S(C)(=O)c1ccc(-c2ccccc2OCF)cc1Cl (stereo not drawn) [Ij, 3'-Chloro-2-(fluoromethoxy)-4'-(N,S-dimethylsulfonimidoyl)biphenyl]
Potentiation (%) at 10 µM (human D1 receptors): 35%

SMILES: CN=S(C)(=O)c1ccc(-c2ccccc2OC(F)F)cc1Cl (stereo not drawn) [Ie, 3'-Chloro-2-(difluoromethoxy)-4'-(N,S-dimethylsulfonimidoyl)biphenyl]
Potentiation (%) at 10 µM (human D1 receptors): 33%

SMILES: CN=S(C)(=O)c1ccc(-c2ccccc2OC(F)(F)F)cc1Cl (stereo not drawn) [Ig, 3'-Chloro-2-(trifluoromethoxy)-4'-(N,S-dimethylsulfonimidoyl)biphenyl]
Potentiation (%) at 10 µM (human D1 receptors): 27%

SMILES: CS(=N)(=O)c1ccc(-c2ccccc2OC(F)(F)F)cc1Cl (stereo not drawn) [If, 3'-Chloro-4'-(S-methylsulfonimidoyl)-2-(trifluoromethoxy)biphenyl]
Potentiation (%) at 10 µM (human D1 receptors): 30%

SMILES: CS(=N)(=O)c1ccc(-c2ccccc2OC(F)F)cc1Cl (stereo not drawn) [Id, 3'-Chloro-2-(difluoromethoxy)-4'-(S-methylsulfonimidoyl)biphenyl]
Potentiation (%) at 10 µM (human D1 receptors): 25%

SMILES: CS(=N)(=O)c1ccc(-c2ccccc2OC(F)F)cc1 (stereo not drawn) [Ia, 2-(Difluoromethoxy)-4'-(S-methylsulfonimidoyl)biphenyl]
Potentiation (%) at 10 µM (human D1 receptors): 27%

SMILES: CCS(=N)(=O)c1ccc(-c2ccccc2OC(F)F)cc1 (stereo not drawn) [Ic, 2-(Difluoromethoxy)-4'-(S-ethylsulfonimidoyl)biphenyl]
Potentiation (%) at 10 µM (human D1 receptors): 39%
